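Grown in 96-well plates, cells were treated for 48 hours with each compound at five concentrations. Insufficient inhibition: endpoint recorded as highest concentration tested. GI50: concentration for 50% inhibition of growth. At the TGI there is no net growth.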
Columns and labels:
Experiment in all cases: NCI-60 cell line screen, 48 h
NCI-H23 lung = tested on: NCI-H23 lung
NCI-H460 lung = tested on: NCI-H460 lung
NCI-H522 lung = tested on: NCI-H522 lung
NCI/ADR-RES ovarian = tested on: NCI/ADR-RES ovarian
OVCAR-3 ovarian = tested on: OVCAR-3 ovarian
OVCAR-4 ovarian = tested on: OVCAR-4 ovarian
OVCAR-5 ovarian = tested on: OVCAR-5 ovarian
OVCAR-8 ovarian = tested on: OVCAR-8 ovarian
PC-3 prostate = tested on: PC-3 prostate
RPMI-8226 leukemia = tested on: RPMI-8226 leukemia
RXF 393 renal = tested on: RXF 393 renal
SF-268 CNS = tested on: SF-268 CNS
SF-295 CNS = tested on: SF-295 CNS
SF-539 CNS = tested on: SF-539 CNS
SK-MEL-2 melanoma = tested on: SK-MEL-2 melanoma
SK-MEL-28 melanoma = tested on: SK-MEL-28 melanoma
SK-MEL-5 melanoma = tested on: SK-MEL-5 melanoma
SK-OV-3 ovarian = tested on: SK-OV-3 ovarian
SN12C renal = tested on: SN12C renal
SNB-19 CNS = tested on: SNB-19 CNS
SNB-75 CNS = tested on: SNB-75 CNS
SR leukemia = tested on: SR leukemia
SW-620 colon = tested on: SW-620 colon
T-47D breast = tested on: T-47D breast
TK-10 renal = tested on: TK-10 renal
U251 CNS = tested on: U251 CNS
UACC-257 melanoma = tested on: UACC-257 melanoma
UACC-62 melanoma = tested on: UACC-62 melanoma
UO-31 renal = tested on: UO-31 renal

COc1ccc(OC)c(N(CCN2C(=O)c3ccccc3C2=O)C(=O)CCl)c1
GI50 (NCI-H23 lung): 2.26 µM | TGI (NCI-H23 lung): 12.3 µM | GI50 (NCI-H460 lung): 13.5 µM | TGI (NCI-H460 lung): 48.5 µM | GI50 (NCI-H522 lung): 0.0631 µM | TGI (NCI-H522 lung): 0.157 µM | GI50 (NCI/ADR-RES ovarian): 3.31 µM | TGI (NCI/ADR-RES ovarian): > 19.6 µM | GI50 (OVCAR-3 ovarian): 0.641 µM | TGI (OVCAR-3 ovarian): 1.62 µM | GI50 (OVCAR-4 ovarian): 0.23 µM | TGI (OVCAR-4 ovarian): 0.554 µM | GI50 (OVCAR-5 ovarian): 1.42 µM | TGI (OVCAR-5 ovarian): 15.8 µM | GI50 (OVCAR-8 ovarian): 7.5 µM | TGI (OVCAR-8 ovarian): 46.3 µM | GI50 (PC-3 prostate): 14 µM | TGI (PC-3 prostate): 67 µM | GI50 (RPMI-8226 leukemia): 2.06 µM | TGI (RPMI-8226 leukemia): 9.34 µM | GI50 (RXF 393 renal): 0.615 µM | TGI (RXF 393 renal): 12.6 µM | GI50 (SF-268 CNS): 0.931 µM | TGI (SF-268 CNS): 3.2 µM | GI50 (SF-295 CNS): 1.09 µM | TGI (SF-295 CNS): 2.44 µM | GI50 (SF-539 CNS): 1.13 µM | TGI (SF-539 CNS): 2.68 µM | GI50 (SK-MEL-2 melanoma): 12.4 µM | TGI (SK-MEL-2 melanoma): 35.1 µM | GI50 (SK-MEL-28 melanoma): 23.4 µM | TGI (SK-MEL-28 melanoma): 91.2 µM | GI50 (SK-MEL-5 melanoma): 16 µM | TGI (SK-MEL-5 melanoma): 35.3 µM | GI50 (SK-OV-3 ovarian): 0.688 µM | TGI (SK-OV-3 ovarian): 2.05 µM | GI50 (SN12C renal): 22.7 µM | TGI (SN12C renal): > 100 µM | GI50 (SNB-19 CNS): 30.4 µM | TGI (SNB-19 CNS): > 100 µM | GI50 (SNB-75 CNS): 0.288 µM | TGI (SNB-75 CNS): 1.22 µM | GI50 (SR leukemia): 0.119 µM | GI50 (SW-620 colon): 15.3 µM | TGI (SW-620 colon): > 58.5 µM | GI50 (T-47D breast): 18.9 µM | TGI (T-47D breast): 54.4 µM | GI50 (TK-10 renal): 16.9 µM | TGI (TK-10 renal): 39.9 µM | GI50 (U251 CNS): 3.74 µM | TGI (U251 CNS): 17.8 µM | GI50 (UACC-257 melanoma): 20.7 µM | TGI (UACC-257 melanoma): 88 µM | GI50 (UACC-62 melanoma): 6.24 µM | TGI (UACC-62 melanoma): 21.6 µM | GI50 (UO-31 renal): 0.0667 µM | TGI (UO-31 renal): 0.154 µM
